Measured values from patent US20210284668A1, “GOLD (I)-PHOSPHINE 1,2,3-TRIAZOLE DERIVATIVES WITH ANTIBIOTIC PROPERTIES” (Centre National de la Recherche Scientifique, priority 2018, published 2021).
Where “and” joins values, the source holds several entries; their conditions need not be identical. Equal values may be shown once.

How the values were obtained:
S. aureus ATCC25923 = test: MIC by microdilution, S. aureus ATCC25923; assay type: cell-based, Staphylococcus aureus; details: S. aureus ATCC25923 (MecA negative, wild-type), Mueller-Hinton broth, in duplicate
Method: (§1) The antibacterial profile of each derivative was evaluated by the standard microdilution method for susceptibility testing on 16 different strains, following the guidelines of CLSI. The selected panel included: • S. aureus ATCC25923 (MecA negative, wild-type) • S. aureus ATCC29213 (MecA negative, wild-type) • S. aureus ATCC700699 (MecA positive, glycopeptide resistant) • S. aureus ST20131365 (MecA positive, glycopeptide resistant) • S. epidermidis ATCC14990 (MecA negative, wild-type) • S. epidermidis ATCC35984 (MecA positive) • S. epidermidis ST20140436 (MecA positive, glycopeptide resistant) • S. epidermidis ST20150446 (MecA positive, glycopeptide resistant) • E. faecalis JH2-2 (wild-type) • E. faecalis UCN41 (VanA positive, glycopeptide resistant) • E. faecalis V583 (VanB positive, glycopeptide resistant) • E. faecium ATCC19434T (wild-type) • E. faecium BM4147 (VanA positive, glycopeptide resistant) • E. faecium AUS0004 (VanB positive, glycopeptide resistant) • E. coli ATCC25922 (wild-type) • Clostridium difficile ATCC9689 (wild-type)
(§2) Both series issued from the SAR study were evaluated for their antibacterial activity on a panel of characterized strains obtained from the French National Reference Centers for Staphylococci (Lyon, Pr. Fréderique Laurent) and for Enterococci (Caen, Pr. Vincent Cattoir), respectively. As shown in the following tables, both series contain very active compounds on multi-resistant Gram-positive bacteria (Minimal Inhibitory Concentrations lower than comparator antibiotic ampicillin). Furthermore, a very important antibacterial effect has been shown too on a strain of Clostridium difficile, a Gram-positive, spore-forming, bacillus responsible for post-antibiotic diarrhoae.
(§3) The antibacterial activity of test compounds was evaluated on a selected panel of Gram-positive (4 Staphylococcus aureus, 4 Staphylococcus epidermidis, 3 Enterococcus faecalis, 3 Enterococcus faecium, 1 Clostridium difficile) and Gram-negative strains (1 Escherichia coli, 1 Klebsiella pneumoniae, 1 Pseudomonas aeruginosa, 1 Acinetacter baumannii) with known features of antibiotic resistance (from wild-type susceptibility to multi-drug resistance). The Minimal Inhibitory Concentration (MIC) of test compounds was determined in duplicate by the microdilution method in 96-well microplates with a final volume of 100 μL per well and Mueller-Hinton broth as the growth medium, as recommended by the CLSI (Clinical and Laboratory Standards Institute, document Mo7-A10, USA).

S. aureus ATCC29213 = test: MIC by microdilution, S. aureus ATCC29213; assay type: cell-based, Staphylococcus aureus; details: S. aureus ATCC29213 (MecA negative, wild-type), Mueller-Hinton broth, in duplicate
Method: as §1, §2, §3

S. aureus ATCC700699 = test: MIC by microdilution, S. aureus ATCC700699; assay type: cell-based, Staphylococcus aureus; parameters: unit not given here; details: S. aureus ATCC700699 (MecA positive, glycopeptide resistant), in duplicate
Method: as §1, §2, §3

S. aureus ST20131365 = test: MIC by microdilution, S. aureus ST20131365; assay type: cell-based, Staphylococcus aureus; details: S. aureus ST20131365 (MecA positive, glycopeptide resistant), in duplicate
Method: as §1, §2, §3

S. epidermidis ATCC14990 = test: MIC by microdilution, S. epidermidis ATCC14990; assay type: cell-based, Staphylococcus epidermidis; details: S. epidermidis ATCC14990 (MecA negative, wild-type), in duplicate
Method: as §1, §2, §3

S. epidermidis ATCC35984 = test: MIC by microdilution, S. epidermidis ATCC35984; assay type: cell-based, Staphylococcus epidermidis; details: S. epidermidis ATCC35984 (MecA positive), in duplicate
Method: as §1, §2, §3

[1] = system: S. epidermidis ST20140436; test: MIC by microdilution, S. epidermidis ST20140436; assay type: cell-based, Staphylococcus epidermidis; details: S. epidermidis ST20140436 (MecA positive, glycopeptide resistant), in duplicate
Method: as §1, §2, §3

[2] = system: S. epidermidis ST20150446; test: MIC by microdilution, S. epidermidis ST20150446; assay type: cell-based, Staphylococcus epidermidis; details: S. epidermidis ST20150446 (MecA positive, glycopeptide resistant), in duplicate
Method: as §1, §2, §3

E. faecalis JH2-2 = test: MIC by microdilution, E. faecalis JH2-2; assay type: cell-based, Enterococcus faecalis; parameters: unit not given here; details: E. faecalis JH2-2 (wild-type), in duplicate
Method: as §1, §2, §3

E. faecalis UCN41 = test: MIC by microdilution, E. faecalis UCN41; assay type: cell-based, Enterococcus faecalis; parameters: unit not given here; details: E. faecalis UCN41 (VanA positive, glycopeptide resistant), in duplicate
Method: as §1, §2, §3

E. faecalis V583 = test: MIC by microdilution, E. faecalis V583; assay type: cell-based, Enterococcus faecalis; details: E. faecalis V583 (VanB positive, glycopeptide resistant), in duplicate
Method: as §1, §2, §3

E. faecium ATCC19434T = test: MIC by microdilution, E. faecium ATCC19434T; assay type: cell-based, Enterococcus faecium; parameters: unit not given here; details: E. faecium ATCC19434T (wild-type), in duplicate
Method: as §1, §2, §3

E. faecium BM4147 = test: MIC by microdilution, E. faecium BM4147; assay type: cell-based, Enterococcus faecium; parameters: unit not given here; details: E. faecium BM4147 (VanA positive, glycopeptide resistant), in duplicate
Method: as §1, §2, §3

E. faecium AUS0004 = test: MIC by microdilution, E. faecium AUS0004; assay type: cell-based, Enterococcus faecium; details: E. faecium AUS0004 (VanB positive, glycopeptide resistant), in duplicate
Method: as §1, §2, §3

[3] = system: Clostridium difficile ATCC700057; test: MIC by microdilution, Clostridium difficile; assay type: cell-based; details: strain ATCC70057 [sic] (Tables 1-2) / ATCC700057 (Tables 3-10), in duplicate
[4] = system: panel of Gram-positive and Gram-negative strains; test: Antibacterial profile on the selected panel of strains; assay type: cell-based; details: summary of Tables 1-12
Method: as §1, §2, §3

E. coli ATCC25922 = test: MIC by microdilution, E. coli ATCC25922; assay type: cell-based, Escherichia coli; details: E. coli ATCC25922 (wild-type), in duplicate
Method: as §1, §2, §3

SMILES	Minimal Inhibitory Concentration (MIC) (S. aureus ATCC25923)	Minimal Inhibitory Concentration (MIC) (S. aureus ATCC29213)	Minimal Inhibitory Concentration (MIC) (S. aureus ATCC700699)	Minimal Inhibitory Concentration (MIC) (S. aureus ST20131365)	Minimal Inhibitory Concentration (MIC) (S. epidermidis ATCC14990)	Minimal Inhibitory Concentration (MIC) (S. epidermidis ATCC35984)	Minimal Inhibitory Concentration (MIC) [1]	Minimal Inhibitory Concentration (MIC) [2]	Minimal Inhibitory Concentration (MIC) (E. faecalis JH2-2)	Minimal Inhibitory Concentration (MIC) (E. faecalis UCN41)	Minimal Inhibitory Concentration (MIC) (E. faecalis V583)	Minimal Inhibitory Concentration (MIC) (E. faecium ATCC19434T)	Minimal Inhibitory Concentration (MIC) (E. faecium BM4147)	Minimal Inhibitory Concentration (MIC) (E. faecium AUS0004)	Minimal Inhibitory Concentration (MIC) [3]	antimicrobial / antibacterial activity (in words) [4]	Minimal Inhibitory Concentration (MIC) (E. coli ATCC25922)
CC[P+](CC)(CC)[Au-][c]1nn[nH]c1-c1ccc(C(=O)O)cn1 [TMB39]	≤0.06	≤0.06	≤0.06	≤0.06	≤0.06	≤0.06	≤0.06	≤0.06	0.25	0.25	0.25	0.125	0.125	0.5	0.25 and 0.5	have antimicrobial activity	–
CC[P+](CC)(CC)[Au-][c]1nn[nH]c1COC(=O)NC(C(=O)O)c1ccccc1 (stereo not shown) [TMB45]	0.125	0.25	0.25	0.25	≤0.06	≤0.06	≤0.06	≤0.06	0.5	0.25	0.5	0.25	0.25	0.5	0.125	have antimicrobial activity	–
O=C(N[C@@H](C(=O)O)c1ccccc1)OCc1cnn[nH]1 [TMB41]	>8	>8	>8	>8	>8	>8	>8	>8	>8	>8	>8	>8	>8	>8	>8	do not show an antibacterial activity	–
CC[P+](CC)(CC)[Au-][c]1nn[nH]c1-c1c(C)noc1C [TMB43]	≤0.06	0.125	0.125	0.125	≤0.06	≤0.06	0.125	≤0.06	0.25	0.25	0.25	0.125	0.125	0.25	0.25	have antimicrobial activity	–
CC[P+](CC)(CC)[Au-][c]1nn[nH]c1-c1cccc(C(=O)NC(C(=O)NC2C(=O)N3C2SC(C)(C)C3C(=O)O)c2ccccc2)c1 (stereo not shown) [TMB12]	–	–	0.125 and 0.25	0.5	≤0.06	≤0.06	≤0.06	≤0.06	0.5	0.5 and 1	1	0.5	1	0.5	≤0.06	have antimicrobial activity	>8
CC[P+](CC)(CC)[Au-][c]1nn[nH]c1CCS(N)(=O)=O [TMB36]	≤0.06	–	0.125	–	≤0.06	≤0.06	≤0.06	≤0.06	0.25	0.25	0.5	0.25	0.5	0.25	≤0.06	have antimicrobial activity	>8
CC[P+](CC)(CC)[Au-][c]1nn[nH]c1-c1cccc(C(=O)NC(C(=O)O)c2ccccc2)c1 (stereo not shown) [TMB20]	0.125	–	0.125	0.125	≤0.06	≤0.06	≤0.06	–	0.25	0.25	0.25 and 0.5	0.25	0.25 and 0.5	0.25	≤0.06	have antimicrobial activity	>8
CC[P+](CC)(CC)[Au-][c]1nn[nH]c1CCC(=O)NC(C(=O)O)c1ccccc1 (stereo not shown) [TMB21]	–	–	0.125	0.125	≤0.06	≤0.06	≤0.06	≤0.06	0.25	0.25	0.25 and 0.5	0.25	0.25 and 0.5	0.25	≤0.06	have antimicrobial activity	>8
